Results from patent US3975389A, “Caffeine derivatives” (priority 1973, dated 1976).

Legend:
[1] = acute toxicity, mouse; settings: in vivo
Description: (§1) o) compound dissolved in physiological salt solution.
(§2) x) compound suspended in 5% arabic gum.

[2] = acute toxicity, guinea-pig; settings: in vivo
Description: as §1, §2

[3] = tested on: bronchial spasm caused by a broncho-constrictor aerosol of histamine hydrochloride; test: broncholitic activity in the awake guinea-pig: percentage protection against bronchial spasm caused by histamine hydrochloride aerosol; type: in vivo
[4] = survival / late mortality of guinea-pigs treated in the broncholitic activity test (48 hours, oral route); settings: guinea pig, in vivo, po
[5] = strengthening of the andiogenic convulsions test in the mouse; type: in vivo; settings: in vivo, ip, intraperitoneal dose of 50 mg/kg, read-out: death of treated animals
Description: (§3) The undesired action on the central nervous system has been evaluated with the strengthening of the andiogenic convulsions test in the mouse (Werboff et coll., Amer. J. Physiol., 201, 830, 1961). As is well known, the theophilline derivatives potentiate the effects of the acoustic stimulus (motory agitation, clonic and tonic convulsions which may lead to the death of the animals).

[6] = tested on: effects of the acoustic stimulus (motory agitation, clonic and tonic convulsions); test: as above; type: in vivo; settings: intraperitoneal dose of 50 mg/kg
Description: as §3

[7] = bronchial asthma therapy; known for the comparison compound; cited from earlier work
[8] = tested on: guinea-pigs; test: survival / late mortality of guinea-pigs treated in the broncholitic activity test (48 hours, oral route); settings: in words; tardy mortality
[9] = ip, dissolved in physiological salt solution
[10] = po, per os, suspended in 5% arabic gum
[11] = i.p. route, 25 mg/kg, after 30' of the administration
[12] = i.p. route, 50 mg/kg, after 30' of the administration
[13] = i.p. route, 75 mg/kg, after 30' of the administration
[14] = oral route, 75 mg/kg, after 60' of the administration
[15] = oral route, 150 mg/kg, after 60' of the administration
[16] = oral route, 300 mg/kg, after 60' of the administration

Compound | LD50 [1, 9] [mg/kg] | LD50 [1, 10] [mg/kg] | Protection percentage from the spasm caused by histamine [3, 11] [%] | Protection percentage from the spasm caused by histamine [3, 12] [%] | Protection percentage from the spasm caused by histamine [3, 13] [%] | Protection percentage from the spasm caused by histamine [3, 14] [%] | Protection percentage from the spasm caused by histamine [3, 15] [%] | Protection percentage from the spasm caused by histamine [3, 16] [%] | survival at 48 h ([4]; 75 mg/kg) [%] | survival at 48 h ([4]; 150 mg/kg) [%] | survival at 48 h ([4]; 300 mg/kg) [%] | other results
Cc1ccnc(C)c1C(=O)OC(C)c1nc2c(c(=O)n(C)c(=O)n2C)n1C (stereo not drawn) [8-[α-(2,4-dimethylnicotinoyloxy)-ethyl]-caffeine] | 320 | 500 |  |  |  |  |  |  |  |  |  | 
CC(OC(=O)c1cccnc1)c1nc2c(c(=O)n(C)c(=O)n2C)n1C (stereo not drawn) [8-[α-(nicotinoyloxy)-ethyl]-caffeine] | 445 | 520 |  |  |  |  |  |  |  |  |  | LD50 [2, 9]: 220 mg/kg; LD50 [2, 10]: 440 mg/kg
CC(OC(=O)c1cccnc1)c1nc2c(c(=O)n(C)c(=O)n2C)n1C.Cl (stereo not drawn) [386/770, 8-[α-(nicotinoyloxy)-ethyl]-caffeine monohydrochloride] |  |  | 35 | 38 | 94 | 13 | 26 | 65 | 100 | 100 | 100 | 
Cc1ccnc(C)c1C(=O)OC(C)c1nc2c(c(=O)n(C)c(=O)n2C)n1C.Cl (stereo not drawn) [386/986, 8-[α-(2,4-dimethylnicotinoyloxy)-ethyl]-caffeine monohydrochloride] |  |  | 22 | 39 | 85 | 39 | 54 | 80 | 100 | 100 | 100 | 
Cn1c(=O)c2[nH]cnc2n(C)c1=O [Aminophilline, reference compound] |  |  |  | 24 | 80 | 31 | 95 |  |  |  |  | Protection percentage from the spasm caused by histamine ([3]; i.p. route, 100 mg/kg, after 30' of the administration): 100%; Protection percentage from the spasm caused by histamine ([3]; i.p. route, 150 mg/kg, after 30' of the administration): 100%; Protection percentage from the spasm caused by histamine ([3]; oral route, 50 mg/kg, after 60' of the administration): 14%; Protection percentage from the spasm caused by histamine ([3]; oral route, 100 mg/kg, after 60' of the administration): 92%; mortality [5]: 50%; strengthening of the effects of the acoustic stimulus [6]: remarkable strengthening of the effects of the acoustic stimulus; undesired secondary effects [7]: excitement caused by caffeine and irritation of the gastric mucous membrane; mortality of guinea-pigs subjected to the broncholitic activity test [8]: tardy high mortality
